Source: article PMC7986153, “A Functional Chemiluminescent Probe for in Vivo Imaging of Natural Killer Cell Activity Against Tumours” (Angewandte Chemie (International Ed. in English), 2021)
Where a SMILES comes first, the peptide text is derived from it. The star is where a group is joined. AMC = Cc1cc(=O)oc2cc(N*)ccc12

Target: T1, hr‐granzyme B (Homo sapiens, UniProt P10144)
T1 construct: in the absence and presence of active human recombinant (hr)‐granzyme B
Assay: Time-course signal-to-noise ratios after reaction with granzyme B
Type: biochemical
Settings: Ac-IEPD-AMC 25 μM, hr-granzyme B 20 nM, aqueous buffer 37 °C, fluorescence 450 nm, over 30 minutes; mean ± SEM, n=6
Protocol: In vitro characterisation assays. Enzymatic assays were run in a 384-well format in a PCR opaque microplate (Thermo Scientific). All experiments were performed at least in triplicate. Dilutions and reactions using human GZM B and human neutrophil elastase were prepared in 50 mM Tris-HCl and 100 mM NaCl (pH 7.4). GZM A assays were performed in 25 mM HEPES, 0.1% CHAPS and 10 mM DTT (pH 7.5). Dilutions and incubations with CASP8 and CASP9 were prepared in 50 mM HEPES, 100 mM NaCl, 0.1% Triton X-100, 10 mM DTT, 1 mM EDTA and 10% glycerol (pH 7.4). Any other tested biomolecules were prepared in PBS. Proteolytic activity was determined by calculating the fold change in chemiluminescence signal (or fluorescence signal in the case of Ac - IEPD-AMC) over background signal provided by the corresponding dilution of the probes with the enzyme using a spectrophotometer (Synergy H1 Hybrid Reader, BioTek) at 37°C.
Unless otherwise stated, probes were utilized at a concentration of 100 μM. Enzyme concentration used: 20 nM (except CASP9, which was used at 200 nM) and all other biomolecules were tested at 100 μM. In the case where an inhibitor was used, the enzyme was pre-incubated for 1 h with the inhibitor (100 µM) before addition of probe 1.
Cell culture. […]

T1 sequence (P10144 21-247): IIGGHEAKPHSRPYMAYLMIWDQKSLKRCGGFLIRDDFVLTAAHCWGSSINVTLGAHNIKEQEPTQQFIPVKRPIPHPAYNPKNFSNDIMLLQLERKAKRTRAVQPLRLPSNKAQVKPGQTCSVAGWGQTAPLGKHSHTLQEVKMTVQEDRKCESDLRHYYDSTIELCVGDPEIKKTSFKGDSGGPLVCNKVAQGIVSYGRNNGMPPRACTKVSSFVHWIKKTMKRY

With `CC[C@H](C)[C@H](NC(C)=O)C(=O)N[C@@H](CCC(=O)O)C(=O)N1CCC[C@H]1C(=O)N[C@@H](CC(=O)O)C(=O)Nc1ccc2c(C)cc(=O)oc2c1` [Ac‐IEPD‐AMC] (Ac-IEPD-{AMC}) the “Signal‐to‐noise (S/N) ratio” value was “under 5”.
